Results as given in US8552163B2, “Liver-targeting agents and their synthesis” (Johns Hopkins University, priority 2009, dated 2013).
pIC50: −log10 of the molar value.

What was measured:
ASGPR = target: T1, ASGPR (Mus musculus, UniProt P24721+P34927); assay: Competitive binding assay with Eu-ASOR on murine hepatocyte (time-resolved fluorometry); conditions: for binding to ASGPR compared with that of YEE or YDD: relative to YEE or YDD, from the IC50 data of Table 1
T1 construct: host or cells: murine hepatocytes (purchased, plated in 24-well plates)
T1 sequence (P34927 1-284): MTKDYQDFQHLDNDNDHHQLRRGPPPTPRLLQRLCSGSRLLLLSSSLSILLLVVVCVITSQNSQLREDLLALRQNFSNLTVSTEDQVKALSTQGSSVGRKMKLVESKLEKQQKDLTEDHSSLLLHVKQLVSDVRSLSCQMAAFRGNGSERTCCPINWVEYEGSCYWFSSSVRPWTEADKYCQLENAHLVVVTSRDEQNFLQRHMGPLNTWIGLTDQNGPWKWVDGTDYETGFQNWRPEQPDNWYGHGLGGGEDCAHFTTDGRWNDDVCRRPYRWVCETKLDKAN
T1 sequence (P24721 1-301): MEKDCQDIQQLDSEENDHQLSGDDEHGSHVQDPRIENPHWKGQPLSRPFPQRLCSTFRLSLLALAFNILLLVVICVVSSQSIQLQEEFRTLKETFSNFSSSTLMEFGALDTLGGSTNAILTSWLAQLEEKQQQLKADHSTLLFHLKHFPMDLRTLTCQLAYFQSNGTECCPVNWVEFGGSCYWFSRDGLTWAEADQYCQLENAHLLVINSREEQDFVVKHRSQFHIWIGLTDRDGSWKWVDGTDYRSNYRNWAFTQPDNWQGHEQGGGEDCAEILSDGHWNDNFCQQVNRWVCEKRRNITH
Description: With Eu-asialo-orosomucoid (Eu-ASOR) as a reference material, the binding affinity of the multivalent glyco-ligands (DCM-Lys(ah-GalNAc)3, DCM-Lys(GahGalNAc)3, DCM-Lys(ahLac)3, AHA-Asp[DCM-Lys(ahLac)3]2) and murine hepatocyte can be determined by competitive assay to obtain IC50 (concentration of 50% inhibition), and the lower the IC50 is, the higher the binding affinity. The murine hepatocyte (Lonza Biotechnology Company, Walkersville, Md.) is plated in a 24-well plate in advance, and the reaction occurs in each well, into which (i) Eu-ASOR 10 nM (ii) hepatocyte basic medium with 5 mM calcium chloride, and (iii) five different concentrations of multivalent ligands of 1 μM-0.8 nM are added. After culturing with shaking for 1 hr in the cold, the unbound ligands are removed by washing with the hepatocyte basic medium containing calcium chloride. Time-resolved fluorometry (TRF) is performed, using an enhancement solution (15 μM β-naphthoyl trifluoroacetone, 50 μM tri-n-octyl-phosphine oxide, 0.1% triton X-100 in 0.1 M acetic acid, titrated with potassium hydrogen phthalate to pH 3.2). The enhancement solution reacts with Eu^3+ to form an Eu chelate, which can emit at 615 nm when excited at 340 nm. With the logarithm of the concentration of saccharide chain peptide as X axis, the emitted fluorescence value as Y axis, the fluorescence value without adding glycopeptide being set as 100%, the IC50 values of each ligand can be calculated accordingly.

[1] = as first reported by Lee (1983); cited from earlier work

Row | SMILES | binding to ASGPR compared with that of YEE or YDD (ASGPR) | pIC50 (ASGPR; competition with 10 nM Eu-ASOR, murine hepatocyte, 5 mM calcium chloride, 1 hr in the cold, read-out: IC50 (concentration of 50% inhibition), binding strength of saccharide chains and murine hepatocyte) | solubility [1]
1 | NCCCCCC(=O)NC(CC(=O)NCCCCC(C(=O)NCCCCCCOC1OC(CO)C(OC2OC(CO)C(O)C(O)C2O)C(O)C1O)N(CC(=O)NCCCCCCOC1OC(CO)C(OC2OC(CO)C(O)C(O)C2O)C(O)C1O)CC(=O)NCCCCCCOC1OC(CO)C(OC2OC(CO)C(O)C(O)C2O)C(O)C1O)C(=O)NCCCCC(C(=O)NCCCCCCOC1OC(CO)C(OC2OC(CO)C(O)C(O)C2O)C(O)C1O)N(CC(=O)NCCCCCCOC1OC(CO)C(OC2OC(CO)C(O)C(O)C2O)C(O)C1O)CC(=O)NCCCCCCOC1OC(CO)C(OC2OC(CO)C(O)C(O)C2O)C(O)C1O (stereo not shown) [AHA-Asp[DCM-Lys(ahLac)3]2] | the same binding strength as that of YEE or YDD |  | 
2 | CC(=O)N[C@H]1[C@H](OCCCCCCNC(=O)CNC(=O)CN(CC(=O)NCC(=O)NCCCCCCO[C@@H]2O[C@H](CO)[C@H](O)[C@H](O)[C@H]2NC(C)=O)[C@@H](CCCCN)C(=O)NCC(=O)NCCCCCCO[C@@H]2O[C@H](CO)[C@H](O)[C@H](O)[C@H]2NC(C)=O)O[C@H](CO)[C@H](O)[C@@H]1O [DCM-Lys(GahGalNAc)3] | 10 times | 9.00 | 
3 | CC(=O)N[C@H]1[C@H](OCCCCCCNC(=O)CC[C@H](NC(=O)CC[C@H](NC(=O)[C@@H](N)Cc2ccc(O)cc2)C(=O)NCCCCCCO[C@@H]2O[C@H](CO)[C@H](O)[C@H](O)[C@H]2NC(C)=O)C(=O)NCCCCCCO[C@@H]2O[C@H](CO)[C@H](O)[C@H](O)[C@H]2NC(C)=O)O[C@H](CO)[C@H](O)[C@@H]1O [YEE(ahGalNAc)3] |  |  | poor solubility
